Reference: US4521422A, “Aryl and heteroaryl[7-(aryl and heteroaryl)pyrazolo[1,5-a]pyrimidin-3-yl]methanones” (American Cyanamid Company, priority 1984, dated 1985)

Each molecule was assayed on Clonic Seizures Caused by Pentylenetetrazole in Rats (assay: Protection against clonic seizures caused by pentylenetetrazole in rats). Conditions: Rattus norvegicus; dose 25.0 mg/kg, oral or i.p.; pentylenetetrazole 23 mg/kg i.v. at 30 or 60 min; read-out: % of Rats Protected.
Assay type: in vivo
Protocol: The anti-anxiety and anticonvulsant properties of the novel compounds of the present invention have been established in a test which indicates anxiolytic and antiepileptic activity by the measure of protection from convulsions resulting from the administration of pentylenetetrazole. Single or graded dose levels of the test compounds were administered orally or intraperitoneally in a 2% starch vehicle, containing 0.5% v/v polyethylene glycol and one drop of Polysorbate 80 to groups of at least 4 rats. At 30 or 60 minutes, the rats were treated intravenously with pentylenetetrazole at a dose of 23 mg/kg of body weight. This dose is estimated to cause clonic seizures in 99% of unprotected rats. It has been reported [R. T. Hill and D. H. Tedeschi, "Animal Testing and Screening Procedures in Evaluating Psychotropic Drugs" in "An Introduction to Psychopharmacology", Eds. R. R. Rech and K. E. Moore, Raven Press, New York, pp 237-288 (1971)] that there is a high degree of correlation between antagonism of pentylenetetrazole seizures in rats and anti-anxietyor anticonvulsant effects in higher warm-blooded animals.

First: COc1ccc(C(=O)c2cnn3c(-c4ccc[n+]([O-])c4)ccnc23)cc1 [(4-Methoxyphenyl)[7-(3-pyridinyl)pyrazolo[1,5-a]pyrimidin-3-yl]methanone, pyridine-1-oxide]
Second: CN(C)c1ccc(C(=O)c2cnn3c(-c4ccncc4)ccnc23)cc1 [[4-(dimethylamino)phenyl][7-(4-pyridinyl)pyrazolo[1,5-a]pyrimidin-3-yl]methanone]
The responders at 25 mg/kg of the first is lower: 25% for the first, 75% for the second.

`O=C(c1cccs1)c1cnn2c(-c3cccc(F)c3)ccnc12` [[7-(3-fluorophenyl)pyrazolo[1,5-a]pyrimidin-3-yl]-2-thienylmethanone] and `O=C(c1cccc(Cl)c1)c1cnn2c(-c3ccc(F)cc3)ccnc12` [(3-chlorophenyl)[7-(4-fluorophenyl)pyrazolo[1,5-a]pyrimidin-3-yl]methanone] are the same in responders at 25 mg/kg: 25% for the first, 25% for the second.

`Cc1ccccc1C(=O)c1cnn2c(-c3ccncc3)ccnc12` [(2-methylphenyl)[7-(4-pyridinyl)pyrazolo[1,5-a]pyrimidin-3-yl]methanone] and `O=C(c1ccccc1Cl)c1cnn2c(-c3ccncc3)ccnc12` [(2-chlorophenyl)[7-(4-pyridinyl)pyrazolo[1,5-a]pyrimidin-3-yl]methanone] are the same in responders at 25 mg/kg: 25% for the first, 25% for the second.

Compared with `Cc1cc(-c2cccc(C(F)(F)F)c2)n2ncc(C(=O)c3ccc(Cl)cc3)c2n1` [(4-chlorophenyl)[5-methyl-7-[3-(trifluoromethyl)phenyl]pyrazolo[1,5-a]pyrimidin-3-yl]methanone], `O=C(c1ccc(C(F)(F)F)cc1)c1cnn2c(-c3ccc(Cl)c(Cl)c3)ccnc12` [[7-(3,4-dichlorophenyl)pyrazolo[1,5-a]pyrimidin-3-yl][4-(trifluoromethyl)phenyl]methanone] is higher in responders at 25 mg/kg: 25% for the first, 50% for the second.

`O=C(c1ccsc1)c1cnn2c(-c3ccncc3)ccnc12` [[7-(4-pyridinyl)pyrazolo[1,5-a]pyrimidin-3-yl]-3-thienylmethanone] and `COc1ccccc1C(=O)c1cnn2c(-c3ccc(F)cc3)ccnc12` [[7-(4-fluorophenyl)pyrazolo[1,5-a]pyrimidin-3-yl](2-methoxyphenyl)methanone] are the same in responders at 25 mg/kg: 50% for the first, 50% for the second.

What follows are molecules tested on Brain-Specific Receptors of Rats (assay: Inhibition of the binding of 3H-benzodiazepine to brain-specific receptors of rats). Conditions: 3H-diazepam 1.5 nM or 3H-flunitrazepam 1.0 nM; rat cortex P2 fraction; test concentration not given.
Parameters: species or system rat (Wistar)

Going from `O=C(c1ccco1)c1cnn2c(-c3ccccc3F)ccnc12` [[7-(2-fluorophenyl)pyrazolo[1,5-a]pyrimidin-3-yl]-2-furanyl-methanone] to `O=C(c1ccco1)c1cnn2c(-c3ccccc3)ccnc12` [2-Furanyl(7-phenylpyrazolo[1,5-a]pyrimidin-3-yl)methanone], the “% Inhibition” value rises from 34% to 81%.

`O=C(c1ccccc1)c1cnn2c(-c3cccs3)ccnc12` [phenyl[7-(2-thienyl)pyrazolo[1,5-a]pyrimidin-3-yl]methanone] and `O=C(c1ccccc1)c1cnn2c(-c3ccsc3)ccnc12` [phenyl[7-(3-thienyl)pyrazolo[1,5-a]pyrimidin-3-yl]methanone] are the same in “% Inhibition” value: 96% for the first, 96% for the second.

Going from `Cc1cc(-c2cccnc2)n2ncc(C(=O)c3ccccc3)c2n1` [[5-Methyl-7-(3-pyridinyl)pyrazolo[1,5-a]pyrimidin-3-yl]phenyl-methanone] to `Cc1cc(-c2ccncc2)n2ncc(C(=O)c3ccccc3)c2n1` [[5-Methyl-7-(4-pyridinyl)pyrazolo[1,5-a]pyrimidin-3-yl]phenyl-methanone], the “% Inhibition” value rises from 15% to 93%.

Going from `COc1cc(-c2ccnc3c(C(=O)c4ccccc4)cnn23)cc(OC)c1OC` [phenyl[7-(3,4,5-trimethoxyphenyl)pyrazolo[1,5-a]pyrimidin-3-yl]methanone] to `O=C(c1ccccc1)c1cnn2c(-c3cccc(F)c3)ccnc12` [[7-(3-fluorophenyl)pyrazolo[1,5-a]pyrimidin-3-yl]phenyl-methanone], the “% Inhibition” value rises from 24% to 88%.

Compared with `O=C(c1cccc(F)c1)c1cnn2c(-c3ccc(F)cc3)ccnc12` [(3-fluorophenyl)[7-(4-fluorophenyl)pyrazolo[1,5-a]pyrimidin-3-yl]methanone], `O=C(c1ccc(Cl)cc1)c1cnn2c(-c3ccc(F)cc3)ccnc12` [(4-chlorophenyl)[7-(4-fluorophenyl)pyrazolo[1,5-a]pyrimidin-3-yl]methanone] is lower in “% Inhibition” value: 52% for the first, 16% for the second.

Going from `O=C(c1cccc(C(F)(F)F)c1)c1cnn2c(-c3ccncc3)ccnc12` [[7-(4-pyridinyl)pyrazolo[1,5-a]pyrimidin-3-yl][3-(trifluoromethyl)phenyl]methanone] to `O=C(c1cccc(C(F)(F)F)c1)c1cnn2c(-c3ccccc3)ccnc12` [(7-phenylpyrazolo[1,5-a]pyrimidin-3-yl)[3-(trifluoromethyl)phenyl]methanone], the “% Inhibition” value falls from 99% to 19%.

Compared with `O=C(c1ccccc1)c1cnn2c(-c3cc(Cl)ccc3Cl)ccnc12` [[7-(2,5-dichlorophenyl)pyrazolo[1,5-a]pyrimidin-3-yl]phenyl-methanone], `O=C(c1ccccc1)c1cnn2c(-c3cc(C(F)(F)F)ccc3Cl)ccnc12` [[7-[2-chloro-5-(trifluoromethyl)phenyl]pyrazolo[1,5-a]pyrimidin-3-yl]phenyl-methanone] is higher in “% Inhibition” value: 21% for the first, 86% for the second.

Going from `Cc1ccc(C(=O)c2cnn3c(-c4ccccn4)ccnc23)cc1` [(4-methylphenyl)[7-(2-pyridinyl)pyrazolo[1,5-a]pyrimidin-3-yl]methanone] to `O=C(c1ccccc1)c1cnn2c(-c3ccccn3)ccnc12` [phenyl[7-(2-pyridinyl)pyrazolo[1,5-a]pyrimidin-3-yl]methanone], the “% Inhibition” value rises from 13% to 30%.

First: O=C(c1ccccc1)c1cnn2c(-c3ccccc3)ccnc12 [Phenyl(7-phenylpyrazolo[1,5-a]pyrimidin-3-yl)methanone]
Second: O=C(c1ccccc1)c1cnn2c(-c3cccc(Cl)c3)ccnc12 [[7-(3-chlorophenyl)pyrazolo[1,5-a]pyrimidin-3-yl]phenyl-methanone]
The “% Inhibition” value of the first is lower: 55% for the first, 95% for the second.

Going from `Cc1ccc(C(=O)c2cnn3c(-c4ccsc4)ccnc23)cc1` [(4-methylphenyl)[7-(3-thienyl)pyrazolo[1,5-a]pyrimidin-3-yl]methanone] to `O=C(c1ccc(F)cc1)c1cnn2c(-c3cc[n+]([O-])cc3)ccnc12` [(4-Fluorophenyl)[7-(4-pyridinyl)pyrazolo[1,5-a]pyrimidin-3-yl]methanone, pyridine-1-oxide], the “% Inhibition” value falls from 58% to 15%.

Going from `Cc1cc(-c2cccc(C(F)(F)F)c2)n2ncc(C(=O)c3ccccc3)c2n1` [[5-Methyl-7-[3-(trifluoromethyl)phenyl]pyrazolo[1,5-a]pyrimidin-3-yl]phenyl-methanone] to `O=C(c1cccc(F)c1)c1cnn2c(-c3cccc(C(F)(F)F)c3)ccnc12` [(3-fluorophenyl)[7-[3-(trifluoromethyl)phenyl]pyrazolo[1,5-a]pyrimidin-3-yl]methanone], the “% Inhibition” value rises from 27% to 96%.

First: CC(=O)Nc1ccc(-c2ccnc3c(C(=O)c4ccccc4)cnn23)cc1 [N-[4-(3-Benzoylpyrazolo[1,5-a]pyrimidin-7-yl)phenyl]acetamide]
Second: CC(=O)Nc1cccc(-c2ccnc3c(C(=O)c4ccccc4)cnn23)c1 [N--[3-(3-benzoylpyrazolo[1,5-a]pyrimidin-7-yl)phenyl]acetamide]
The “% Inhibition” value of the first is lower: 33% for the first, 65% for the second.

Going from `O=C(c1ccc(F)cc1)c1cnn2c(-c3ccccc3)ccnc12` [(4-fluorophenyl)(7-phenylpyrazolo[1,5-a]pyrimidin-3-yl)methanone] to `N#Cc1ccc(-c2ccnc3c(C(=O)c4ccccc4)cnn23)cc1` [4-(3-benzoylpyrazolo[1,5-a]pyrimidin-7-yl)benzonitrile], the “% Inhibition” value falls from 42% to 10%.

Going from `Cc1nn2c(-c3cccc(C(F)(F)F)c3)ccnc2c1C(=O)c1ccccc1` [(2-methyl-7-[3-(trifluoromethyl)phenyl]pyrazolo[1,5-a]pyrimidin-3-yl)phenyl-methanone] to `O=C(c1cccc(C(F)(F)F)c1)c1cnn2c(-c3cccc(C(F)(F)F)c3)ccnc12` [[3-(trifluoromethyl)phenyl][7-[3-(trifluoromethyl)phenyl]pyrazolo[1,5-a]pyrimidin-3-yl]methanone], the “% Inhibition” value rises from 54% to 56%.

First: O=C(c1ccccn1)c1cnn2c(-c3ccccn3)ccnc12 [2-pyridinyl[7-(2-pyridinyl)pyrazolo[1,5-a]pyrimidin-3-yl]methanone]
Second: CSc1cccc(-c2ccnc3c(C(=O)c4ccccc4)cnn23)c1 [[7-[3-(methylthio)phenyl]pyrazolo[1,5-a]pyrimidin-3-yl]phenyl-methanone]
The “% Inhibition” value of the first is lower: 77% for the first, 98% for the second.

First: COc1cc(OC)cc(C(=O)c2cnn3c(-c4cccnc4)ccnc23)c1 [(3,5-dimethoxyphenyl)[7-(3-pyridinyl)pyrazolo[1,5-a]pyrimidin-3-yl]methanone]
Second: Cc1cc(-c2cccnc2)n2ncc(C(=O)c3ccc(F)cc3)c2n1 [(4-fluorophenyl)[5-methyl-7-(3-pyridinyl)pyrazolo[1,5-a]pyrimidin-3-yl]methanone]
The “% Inhibition” value of the first is higher: 30% for the first, 25% for the second.

Compared with `O=C(c1cccc(C(F)(F)F)c1)c1cnn2c(-c3ccco3)ccnc12` [[7-(2-furanyl)pyrazolo[1,5-a]pyrimidin-3-yl][3-(trifluoromethyl)phenyl]methanone], `O=C(c1cccs1)c1cnn2c(-c3ccncc3)ccnc12` [[7-(4-pyridinyl)pyrazolo[1,5-a]pyrimidin-3-yl]-2-thienyl-methanone] is higher in “% Inhibition” value: 36% for the first, 62% for the second.
